Assays:
[1] = tested on: hMEC-ZEB1 mesenchymal cells; experiment: Cell viability monitored in real time (Incucyte), cell confluence as read-out, with increasing concentration of anisomycin; assay type: cell-based, human
Excerpt: (§1) Cell lines and cell viability. The epithelial and mesenchymal cellular models were kindly provided by Alain Puisieux's team (17). Briefly, the human epithelial mammary cell (hMECs) were used to derive EMT-related cellular models. The hMEC cell line corresponds to epithelial cells (Lonza) that were immortalized by lentiviral transduction allowing hTERT overexpression. The hMEC cell line was then transduced with lentiviral vector to induce stable over-expression of the murine EMT-TF ZEB1 and to promote EMT and thus generates the hMEC-ZEB1 mesenchymal cell line. The hMEC cellular models were maintained in DM EM-F12 (Gibo) supplemented with 0.5 μg/ml hydrocortisone, 10 ng/ml EGF, […] insulin, 10% fetal calf serum, 100 μg/ml streptomycin and 100 units/ml of penicillin. Selective pressure was maintained with puromycin for hMEC-ZEB1. Cell viability was monitored in real-time using Incucyte Live-Cell analysis system (Statorius). Cells were plated in 96-well plates without selective pressure for 24 hrs before addition of the anisomycin antibiotic (range concentration 2-200 nM). DMSO was used as negative control.
(§2) At day 6, difference in cell viability was determined using cell confluence as a read-out.

hMEC epithelial cells = experiment: as above; assay type: cell-based, human; details: real-time monitoring
Excerpt: as §1, §2

## COc1ccc(C[C@H]2NC[C@H](O)[C@H]2OC(C)=O)cc1 [anisomycin]
[1]; hMEC-ZEB1 mesenchymal cells compared with hMEC epithelial cells, anisomycin 2-200 nM, day 6
  sensitivity to anisomycin treatment (cell viability, cell confluence as read-out): more sensitive
[1]; mesenchymal cells, increasing concentration of anisomycin, real-time monitoring
  change in cell morphology: no change in cell morphology was observed
hMEC epithelial cells
  change in cell morphology: no change in cell morphology was observed
